Measurements as given in ChEMBL document CHEMBL1201862, “PubChem BioAssay data set” (2004).
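Grown in 96-well plates, cells were treated for 48 hours with each compound at five concentrations. Insufficient inhibition: endpoint recorded as highest concentration tested. At the GI50, growth is halved.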 Activity calls are given as the source filed them. Cut-off read from the data, not from the text of the source: active = GI50 up to about 1.1 µM and inactive = higher.

Legend:
Assay in all cases: NCI-60 cell line screen, 48 h
HCT-116 = system: HCT-116
OVCAR-4 = system: OVCAR-4
CCRF-CEM = system: CCRF-CEM
T47D = system: T47D
DU-145 = system: DU-145
K562 = system: K562
SK-OV-3 = system: SK-OV-3
RXF 393 = system: RXF 393
SNB-19 = system: SNB-19
Hs-578T = system: Hs-578T
NCI/ADR-RES = system: NCI/ADR-RES
SK-MEL-5 = system: SK-MEL-5
HT-29 = system: HT-29
A549 = system: A549
SK-MEL-2 = system: SK-MEL-2
IGROV-1 = system: IGROV-1
ACHN = system: ACHN
NCI-H460 = system: NCI-H460
CAKI-1 = system: CAKI-1

| Compound | GI50 (HCT-116) | GI50 (OVCAR-4) | GI50 (CCRF-CEM) | GI50 (T47D) | GI50 (DU-145) | GI50 (K562) | GI50 (SK-OV-3) | GI50 (RXF 393) | GI50 (SNB-19) | GI50 (Hs-578T) | GI50 (NCI/ADR-RES) | GI50 (SK-MEL-5) | GI50 (HT-29) | GI50 (A549) | GI50 (SK-MEL-2) | GI50 (IGROV-1) | GI50 (ACHN) | GI50 (NCI-H460) | GI50 (CAKI-1) |
| --- | --- | --- | --- | --- | --- | --- | --- | --- | --- | --- | --- | --- | --- | --- | --- | --- | --- | --- | --- |
| Cn1ccnc1Sc1ccc(/C=N/NC(=O)c2ccccc2O)cc1[N+](=O)[O-] | 70.1 µM (inactive) | 72.6 µM (inactive) | 37.6 µM (inactive) | 80.2 µM (inactive) | > 100 µM (inactive) | 0.298 µM (active) | > 100 µM (inactive) | > 100 µM (inactive) | > 100 µM (inactive) | 92.5 µM (inactive) | > 100 µM (inactive) | 55.7 µM (inactive) | 33.7 µM (inactive) | > 100 µM (inactive) | 37.8 µM (inactive) | 35.1 µM (inactive) | > 100 µM (inactive) | 69.5 µM (inactive) | 72.8 µM (inactive) |
| CCCCC[C@@H]1OCO[C@@]2(C)/C=C(C)\C=C/C(=O)O[C@H]([C@@H](C)[C@@H](O)[C@H](C)[C@@]3(O)C[C@@H](O[C@H]4C[C@@H](O)[C@H](O)[C@@H](C)O4)[C@H](C)[C@@H](C)O3)[C@@H](OC)/C=C\C=C(\C)C[C@@H]1[C@@H]2O (stereo in doubt) | < 0.005 µM (active) | < 0.005 µM (active) | < 0.005 µM (active) | < 0.005 µM (active) | < 0.005 µM (active) | < 0.005 µM (active) | 1.35 µM (inactive) | < 0.005 µM (active) | 0.0995 µM (active) | 1.2 µM (inactive) | 0.5 µM (active) | < 0.005 µM (active) | < 0.005 µM (active) | < 0.005 µM (active) | < 0.005 µM (active) | < 0.005 µM (active) | < 0.005 µM (active) | < 0.005 µM (active) | < 0.005 µM (active) |
| COC(=O)c1cc(C)n(CN(Cc2ccccc2)Cn2nc(C(=O)OC)cc2C)n1 | > 43 µM (inactive) | > 64.1 µM (inactive) | 17.1 µM (inactive) | > 48.3 µM (inactive) | > 62.1 µM (inactive) | > 100 µM (inactive) | > 100 µM (inactive) | > 53.7 µM (inactive) | > 100 µM (inactive) | > 100 µM (inactive) | > 100 µM (inactive) | 99.1 µM (inactive) | > 52.7 µM (inactive) | > 100 µM (inactive) | > 100 µM (inactive) | > 66.1 µM (inactive) | > 43.1 µM (inactive) | > 100 µM (inactive) | > 69.2 µM (inactive) |
| CC(C)(C)c1cc(C(P(=O)(c2ccccc2)c2ccccc2)P(=O)(c2ccccc2)c2ccccc2)cc(C(C)(C)C)c1O | 1.58 µM (inactive) | 3.35 µM (inactive) | 2.21 µM (inactive) | 2.9 µM (inactive) | 3.3 µM (inactive) | 3.42 µM (inactive) | 3.11 µM (inactive) | 3.19 µM (inactive) | 3.44 µM (inactive) | 2.48 µM (inactive) | 2.12 µM (inactive) | 1.54 µM (inactive) | 2.08 µM (inactive) | 2.89 µM (inactive) | 1.87 µM (inactive) | 3.12 µM (inactive) | 3.18 µM (inactive) | 2.11 µM (inactive) | 3.85 µM (inactive) |
| COc1cc2c(cc1OCCCNC(=O)c1cc3ccccc3[nH]1)N=C[C@@H]1CCCN1C2=O | 0.24 µM (active) | 0.403 µM (active) | 0.193 µM (active) | 0.229 µM (active) | 0.223 µM (active) | 0.243 µM (active) | 1.6 µM (inactive) | 0.0966 µM (active) | 0.445 µM (active) | 0.23 µM (active) | 2.04 µM (inactive) | 0.195 µM (active) | 0.296 µM (active) | 0.632 µM (active) | 0.179 µM (active) | 0.277 µM (active) | 0.347 µM (active) | 0.675 µM (active) | 0.296 µM (active) |
| CCOC(=O)C(NC(=O)CC(C)C)(Nc1ccc(S(=O)(=O)Nc2nc(C)cc(C)n2)cc1)C(F)(F)F (stereo not drawn) | > 100 µM (inactive) | > 100 µM (inactive) | > 100 µM (inactive) | > 100 µM (inactive) | > 100 µM (inactive) | > 100 µM (inactive) | > 100 µM (inactive) | > 100 µM (inactive) | > 100 µM (inactive) | > 100 µM (inactive) | > 100 µM (inactive) | > 100 µM (inactive) | > 100 µM (inactive) | > 100 µM (inactive) | > 100 µM (inactive) | > 100 µM (inactive) | > 100 µM (inactive) | > 100 µM (inactive) | > 100 µM (inactive) |
| C=CC1C(OC2OC(CO)C(O)C(O)C2O)OC=C(C(=O)OC)C1CC1CC(=O)CC(CCc2ccc(O)cc2)O1 (stereo not drawn) | > 100 µM (inactive) | > 100 µM (inactive) | > 100 µM (inactive) | > 100 µM (inactive) | > 100 µM (inactive) | > 100 µM (inactive) | > 100 µM (inactive) | > 100 µM (inactive) | > 100 µM (inactive) | > 100 µM (inactive) | > 100 µM (inactive) | > 100 µM (inactive) | > 100 µM (inactive) | > 100 µM (inactive) | > 100 µM (inactive) | > 100 µM (inactive) | > 100 µM (inactive) | > 100 µM (inactive) | > 100 µM (inactive) |
